# Where no end group is shown, it is not given here.
# Legend:
# CAM de poulet = details: inhibition of angiogenesis in chicken CAM; cited from earlier work
# [1] = system: mégacaryocytopoièse humaine; details: cited from earlier work
# cellules HEL = details: prior-art comparators; cited from earlier work
# [2] = system: mégacaryocytopoïèse in vivo; assay: Megakaryocytopoiesis in vivo in normal mice (marrow and blood counts); details: souris Balb/c, 40 µg/kg s.c. twice daily for 4 days, sampled day 2 after last injection; mean ± SEM
# Protocol: L'effet du dodécapeptide de l'exemple 1 sur la mégacaryocytopoïèse in vivo a été testé sur des souris normales selon une méthode décrite par HAN et al., dans l'article C.R. Acad. Sci. Paris, (1991), 313, Série III, 553-558 précité. Chaque groupe contient 5-10 souris Balb/c. Le peptide est injecté par voie sous-cutanée deux fois par jour pendant 4 jours aux concentrations de 1 µg et 5 µg par souris pour chaque administration. Les échantillons de moëlle et/ou de sang ont été prélevés au jour J2 qui suit la dernière injection.
# Les souris ont été tuées par dislocation cervicale. Les cellules médullaires ont été obtenues à partir des fémurs et le sang a été obtenu par ponction cardiaque. Les cellules médullaires à la concentration de 2 x 10^5 cellules mononucléées par ml ont été remises en culture en cinq exemplaires en présence de sérum de porc aplasique pendant une semaine pour tester le nombre de progéniteurs mégacaryocytaires (CFU-MK). Le nombre des mégacaryocytes a été évalué sur des cellules médullaires non cultivées mais ensemencées dans des boîtes de culture après obtention à partir des fémurs. Le nombre de plaquettes, de globules blancs et le taux d'hémoglobine ont été mesurés en utilisant un compteur hématopoiétique automatique. […]
substance,measurement,setting,value
"C-13: peptide constitué par les 13 derniers aminoacides (i.e. 58-70) de l'extrémité C-terminale du pF4 (PLYKKIIKKLLES; Platelet factor 4; UniProt P02776 89-101, looked up, fragment)",anti-angiogénèse,CAM de poulet,propriétés anti-angiogénèse
same,effet sur la mégacaryocytopoïèse,[1]; in vitro,aucun effet
"C-24: peptide constitué par les 24 derniers aminoacides (i.e. 47-70) de l'extrémité C-terminale du pF4 (NGRKICLDLQAPLYKKIIKKLLES; Platelet factor 4; UniProt P02776 78-101, looked up, fragment)",maturation des cellules HEL,cellules HEL,limitent la maturation
same,prolifération des cellules HEL,cellules HEL,n'agissent pas sur leur prolifération
same,dose inhibiting mégacaryocytopoièse humaine in vitro,[1]; relatively high dose,~25 µg/mL
"C-41: peptide constitué par les 41 derniers aminoacides (i.e. 30-70) de l'extrémité C-terminale du pF4 (IKAGPHCPTAQLIATLKNGRKICLDLQAPLYKKIIKKLLES; Platelet factor 4; UniProt P02776 61-101, looked up, fragment)",anti-angiogénèse,CAM de poulet,propriétés anti-angiogénèse
NGRKICLDLEAP [exemple 1],Sang H (hémoglobine),[2],"15,2±0,8 g/100 ml"
same,Sang L (leucocytes),[2],"2,80±0,4 10^3/µl"
